The target in one assay is PI3Kα (Homo sapiens, UniProt P42336). As to the kind of experiment: PI3K kinase activity inhibition assay. Particulars: Kinase-Glo Plus ATP detection, read-out: IC50 against PI3K. In kind it is biochemical. Put shortly: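 PI3Kα (50 nM solution) was reacted with 30 μM ATP and 45 μM PIP2 solutions, each in HEPES pH 7.4 with MgCl2 and DTT, for 2 h at room temperature. Remaining ATP was measured by Kinase-Glo Plus luminescence, and inhibition was derived from ATP consumed. IC50 was taken from curve fitting of the serial dilutions.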
PI3Kα, sequence (P42336 whole entry, species assumed): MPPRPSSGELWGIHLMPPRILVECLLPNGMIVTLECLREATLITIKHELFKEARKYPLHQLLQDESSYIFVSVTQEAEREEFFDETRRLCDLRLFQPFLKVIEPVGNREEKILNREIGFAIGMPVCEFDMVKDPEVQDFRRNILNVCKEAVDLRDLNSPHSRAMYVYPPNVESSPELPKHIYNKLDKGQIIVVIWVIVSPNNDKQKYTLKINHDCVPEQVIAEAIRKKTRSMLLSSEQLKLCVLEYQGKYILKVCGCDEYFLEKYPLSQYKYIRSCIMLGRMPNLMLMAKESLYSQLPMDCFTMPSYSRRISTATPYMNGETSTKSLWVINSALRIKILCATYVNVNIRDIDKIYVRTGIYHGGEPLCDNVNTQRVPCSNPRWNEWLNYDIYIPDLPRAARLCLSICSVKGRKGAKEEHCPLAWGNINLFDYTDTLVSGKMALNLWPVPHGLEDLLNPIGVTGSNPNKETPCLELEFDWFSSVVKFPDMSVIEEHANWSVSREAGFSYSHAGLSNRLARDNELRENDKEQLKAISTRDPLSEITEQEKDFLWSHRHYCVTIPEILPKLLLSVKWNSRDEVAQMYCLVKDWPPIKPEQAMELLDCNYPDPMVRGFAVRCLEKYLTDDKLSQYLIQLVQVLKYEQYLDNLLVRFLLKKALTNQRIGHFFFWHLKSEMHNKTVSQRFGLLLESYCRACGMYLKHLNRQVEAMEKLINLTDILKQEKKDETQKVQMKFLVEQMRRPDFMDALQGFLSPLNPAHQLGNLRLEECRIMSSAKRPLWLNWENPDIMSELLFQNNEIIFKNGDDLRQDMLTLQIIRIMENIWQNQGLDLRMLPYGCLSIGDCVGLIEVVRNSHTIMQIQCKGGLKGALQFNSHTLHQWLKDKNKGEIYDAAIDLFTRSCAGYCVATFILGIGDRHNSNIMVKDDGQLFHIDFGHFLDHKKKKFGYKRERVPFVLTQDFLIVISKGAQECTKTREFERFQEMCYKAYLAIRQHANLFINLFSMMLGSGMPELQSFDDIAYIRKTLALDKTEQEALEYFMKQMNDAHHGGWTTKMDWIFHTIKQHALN
PI3Kα, sequence (P27986 whole entry partner, species assumed): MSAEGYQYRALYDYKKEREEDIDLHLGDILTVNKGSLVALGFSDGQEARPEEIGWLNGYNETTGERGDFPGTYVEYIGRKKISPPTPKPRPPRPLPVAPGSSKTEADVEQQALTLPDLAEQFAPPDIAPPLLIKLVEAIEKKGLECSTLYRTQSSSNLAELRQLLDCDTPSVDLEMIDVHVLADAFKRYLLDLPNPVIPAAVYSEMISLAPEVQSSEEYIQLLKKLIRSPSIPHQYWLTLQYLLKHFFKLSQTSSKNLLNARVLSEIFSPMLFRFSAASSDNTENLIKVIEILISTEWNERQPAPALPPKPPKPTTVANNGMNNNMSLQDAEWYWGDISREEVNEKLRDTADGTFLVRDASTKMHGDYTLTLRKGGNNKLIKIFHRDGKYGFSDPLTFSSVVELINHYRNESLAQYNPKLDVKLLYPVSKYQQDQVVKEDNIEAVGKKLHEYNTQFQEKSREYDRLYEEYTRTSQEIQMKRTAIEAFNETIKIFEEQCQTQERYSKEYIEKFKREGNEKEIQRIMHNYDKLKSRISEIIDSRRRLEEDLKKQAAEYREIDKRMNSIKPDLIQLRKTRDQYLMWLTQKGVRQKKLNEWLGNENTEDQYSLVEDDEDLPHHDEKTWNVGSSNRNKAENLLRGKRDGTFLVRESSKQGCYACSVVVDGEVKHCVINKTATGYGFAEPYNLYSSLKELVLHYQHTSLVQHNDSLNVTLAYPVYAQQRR
On the technique in general: Kinase-Glo reads ATP consumption through a luciferase reaction.

In assay [1] the test system is human ovary cancer cell strain IGROV1. As to the kind of experiment: Cell growth inhibition test (MTT), IGROV1. It is filed as cell-based. Particulars: IGROV-1, 72 h, IGROV1, 3 days culture, read-out: concentration exhibiting anti-cell effect (GI50). In a few lines: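 AN3CA, IGROV1 and HT29 seeded at 5000, 1000 and 5000 cells/well; compound added next day, 3 days at 37° C, 5% CO2. MTT 4 h, formazan in DMSO read at 540 nm. GI50 is the concentration giving 50% growth rate (T/C %, corrected for day-of-addition absorbance), interpolated between two bracketing concentrations.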

Assay [2] relates to Akt (threonine 308) phosphorylation in AN3CA tumor. Description: Akt phosphorylation inhibition assay in xenograft. In kind it is in vivo, female nude mouse. The conditions noted are these: Mus musculus, AN3-CA, oral, 6 hr after dosing. On the procedure: (§1) A tumor section was prepared from a human endometrial cancer cell strain AN3CA tumor mass formed in a female nude mouse as subcutaneously transplanted tumor and a xenograft model was prepared by subcutaneously transplanting the tumor to a female nude mouse. The test compound at a predetermined concentration was orally administered. After a predetermined time, the anesthetized mouse was exsanguinated to death, and a tumor mass was isolated. The tumor mass was crushed using a lysis buffer containing inhibitors of proteases and dephosphorylating enzymes (Cell Signaling Technology, Inc.) and the supernatant was separated by centrifugation to obtain a tumor extract. The protein content of the tumor extract was measured using DC Protein Assay Kit (Bio-Rad Laboratories, Inc.) and phosphorylation conditions of Akt (threonine 308) and S6 (serine 235 and 236) were analyzed by a usual technique of western blotting using tumor extracts containing the same amount of protein. The primary antibody and the secondary antibody used for detecting each molecule were rabbit anti-phospho-Akt(T308) antibody and HRP-labeled goat anti-rabbit IgG antibody or mouse anti-phospho-S6(S235/236) antibody and HRP-labeled sheep anti-mouse IgG antibody.
(§2) The signal intensity detected using an image analyzer Typhoon 9400 (GE Healthcare) was quantified, and the phosphorylation inhibition rate (%) was calculated by the following formula. Phosphorylation inhibitory activity (%) of Akt and S6 after treatment with test compound=100−100×(B/A) A: Signal intensity derived from phosphorylated protein in tumor mass isolated from mouse untreated with test compound B: Signal intensity derived from phosphorylated protein in tumor mass isolated from mouse treated with test compound

Assay [3] deals with S6 (serine 235 and 236) phosphorylation in AN3CA tumor. As to the kind of experiment: S6 phosphorylation inhibition assay in xenograft. It is filed as in vivo, female nude mouse. Particulars: Mus musculus, AN3-CA, oral, 6 hr after dosing. As to the method:
as §1, §2

A word on the IC50: it is the midpoint of a concentration-inhibition curve. Usually inhibition stands for the share of the control response that was lost under treatment.

Take `CS(=O)(=O)N1CCN(c2nc3c(N4CCOCC4)nc(-c4cnc(N)nc4)nc3n2CC(F)(F)F)CC1` [Example 8, 5-{8-[4-(Methylsulfonyl)piperazin-1-yl]-6-morpholin-4-yl-9-(2,2,2-trifluoroethyl)-9H-purin-2-yl}pyrimidin-2-amine]: the IC50 at PI3Kα is less than 10 nM. Moreover, in assay [1], the GI50 was not above 5000 nM. Further, the inhibition at 10 mg/kg in assay [2] was more than 60%; in assay [3], more than 90%.
In the same order, the values of `CC(C)Cn1c(N2CCN(C=O)[C@H](C)C2)nc2c(N3CCOCC3)nc(-c3cnc(N)nc3)nc21` [Example 100, (2R)-4-[2-(2-Aminopyrimidin-5-yl)-9-isobutyl-6-morpholin-4-yl-9H-purin-8-yl]-2-methylpiperazine-1-carboaldehyde] are less than 10 nM, not above 5000 nM, more than 60% and more than 90%.
The corresponding values for `CC(=O)N1CCN(c2nc3c(N4CCOCC4)nc(-c4cnc(N)nc4)nc3n2CC(F)(F)F)C[C@H]1C` [Example 60, 5-{8-[(3R)-4-Acetyl-3-methylpiperazin-1-yl]-6-morpholin-4-yl-9-(2,2,2-trifluoroethyl)-9H-purin-2-yl}pyrimidin-2-amine] are less than 10 nM, not above 5000 nM, more than 60% and more than 90%.
The corresponding values for `CS(=O)(=O)C1CCN(c2nc3c(N4CCOCC4)nc(-c4cnc(N)nc4)nc3n2CC(F)(F)F)CC1` [Example 57, 5-{8-[4-(Methylsulfonyl)piperidin-1-yl]-6-morpholin-4-yl-9-(2,2,2-trifluoroethyl)-9H-purin-2-yl}pyrimidin-2-amine] are less than 10 nM, not above 5000 nM, 30 to 60% and more than 90%.
On to `CC(=O)N1[C@H](C)CN(c2nc3c(N4CCOCC4)nc(-c4cnc(N)nc4)nc3n2CC(F)(F)F)C[C@@H]1C` [Example 115, 5-[8-(4-Acetyl-cis-3,5-dimethylpiperazin-1-yl)-6-morpholin-4-yl-9-(2,2,2-trifluoroethyl)-9H-purin-2-yl]pyrimidin-2-amine], for which the IC50 on PI3Kα is less than 10 nM. Besides, the GI50 in assay [1] is not above 5000 nM. The inhibition at 10 mg/kg was more than 60% in assay [2] and more than 90% in assay [3].
For the compound `CC(=O)N1CCN(c2nc3c(N4CCOC[C@@H]4C)nc(-c4cnc(N)nc4C)nc3n2CC2CC2)CC1` [Example 128, 5-{8-(4-acetylpiperazin-1-yl)-9-(cyclopropylmethyl)-6-[(3S)-3-methylmorpholin-4-yl]-9H-purin-2-yl}-4-methylpyrimidin-2-amine], on PI3Kα, the IC50 is 10 to 20 nM. Also, in assay [1], the GI50 was not above 5000 nM. In assay [2], the inhibition at 10 mg/kg was in the range of 30 to 60%.
Turning to `CC[C@H]1CN(c2nc3c(N4CCOCC4)nc(-c4cnc(N)nc4)nc3n2CC(F)(F)F)CCN1S(C)(=O)=O` [Example 76, 5-{8-[(3S)-3-Ethyl-4-(methylsulfonyl)piperazin-1-yl]-6-morpholin-4-yl-9-(2,2,2-trifluoroethyl)-9H-purin-2-yl}pyrimidin-2-amine], the IC50 on PI3Kα is less than 10 nM. Also, the GI50 in assay [1] was not above 5000 nM. Also, the inhibition at 10 mg/kg in assay [2] was more than 60%; in assay [3], more than 90%.
Regarding `CC(C)Cn1c(N2CCN(S(C)(=O)=O)[C@H](C)C2)nc2c(N3CCOCC3)nc(-c3cnc(N)nc3)nc21` [Example 54, 5-{9-Isobutyl-8-[(3R)-3-methyl-4-(methylsulfonyl)piperazin-1-yl]-6-morpholin-4-yl-9H-purin-2-yl}pyrimidin-2-amine], the half-inhibitory concentration (IC50) at PI3Kα is 10 to 20 nM. The GI50 in assay [1] was not above 5000 nM. In addition, the inhibition at 10 mg/kg in assay [2] was in the range of 30 to 60%.
Regarding `CC(C)Cn1c(N2CCN(S(C)(=O)=O)CC2)nc2c(N3CCOCC3)nc(-c3cnc(N)nc3)nc21` [Example 1, 5-{9-Isobutyl-8-[4-(methylsulfonyl)piperazin-1-yl]-6-morpholin-4-yl-9H-purin-2-yl}pyrimidin-2-amine], at PI3Kα, the IC50 lay in the range of 10 to 20 nM. Also, the GI50 in assay [1] was not above 5000 nM.
The corresponding values for `CNc1ncc(-c2nc(N3CCOCC3)c3nc(N4CCN(S(C)(=O)=O)CC4)n(CC(F)(F)F)c3n2)cn1` [Example 11, N-Methyl-5-{8-[4-(methylsulfonyl)piperazin-1-yl]-6-morpholin-4-yl-9-(2,2,2-trifluoroethyl)-9H-purin-2-yl}pyrimidin-2-amine] are 10 to 20 nM and not above 5000 nM.
On to `CC(=O)N1CCN(c2nc3c(N4CCOCC4)nc(-c4cnc(N)nc4)nc3n2CC(C)C)C[C@H]1C` [Example 99, 5-{8-[(3R)-4-Acetyl-3-methylpiperazin-1-yl]-9-isobutyl-6-morpholin-4-yl-9H-purin-2-yl}pyrimidin-2-amine], for which the IC50 at PI3Kα fell in the range of 10 to 20 nM. In assay [1], the GI50 was not above 5000 nM. In addition, the inhibition at 10 mg/kg in assay [2] lay in the range of 30 to 60%.
As to `CC(C)Cn1c(N2CCN(C(=O)CN(C)C)CC2)nc2c(N3CCOCC3)nc(-c3cnc(N)nc3)nc21` [Example 55, 5-(8-{4-[(Dimethylamino)acetyl]piperazin-1-yl}-9-isobutyl-6-morpholin-4-yl-9H-purin-2-yl)pyrimidin-2-amine], the IC50 on PI3Kα is less than 10 nM. For the same compound, in assay [1], the GI50 is not above 5000 nM.
In the same order, the values of `C[C@H]1COCCN1c1nc(-c2cnc(N)nc2)nc2c1nc(N1CCN(S(C)(=O)=O)CC1)n2CC(F)(F)F` [Example 127, 5-{6-[(3S)-3-Methylmorpholin-4-yl]-8-[4-(methylsulfonyl)piperazin-1-yl]-9-(2,2,2-trifluoroethyl)-9H-purin-2-yl}pyrimidin-2-amine] are less than 10 nM and not above 5000 nM.
With `CNc1ncc(-c2nc(N3CCOCC3)c3nc(N4CCN(CC(=O)N(C)C)[C@H](C)C4)n(CC(F)(F)F)c3n2)cn1` [Example 87, N,N-Dimethyl-2-[(2R)-2-methyl-4-{2-[2-(methylamino)pyrimidin-5-yl]-6-morpholin-4-yl-9-(2,2,2-trifluoroethyl)-9H-purin-8-yl}piperazin-1-yl]acetamide], the IC50 at PI3Kα was less than 10 nM. In assay [1], the GI50 is not above 5000 nM. Moreover, in assay [2], the inhibition at 10 mg/kg is more than 60%.
In the same order, the values of `CC(C)Cn1c(N2CCN(S(C)(=O)=O)[C@@H](C)C2)nc2c(N3CCOCC3)nc(-c3cnc(N)nc3)nc21` [Example 53, 5-{9-Isobutyl-8-[(3S)-3-methyl-4-(methylsulfonyl)piperazin-1-yl]-6-morpholin-4-yl-9H-purin-2-yl}pyrimidin-2-amine] are 10 to 20 nM, not above 5000 nM and 30 to 60%.
In the same order, the values of `Cc1nc(N)ncc1-c1nc(N2CCOCC2)c2nc(N3CCN(S(C)(=O)=O)CC3)n(CC3CC3)c2n1` [Example 6, 5-{9-(Cyclopropylmethyl)-8-[4-(methylsulfonyl)piperazin-1-yl]-6-morpholin-4-yl-9H-purin-2-yl}-4-methylpyrimidin-2-amine] are less than 10 nM, not above 5000 nM and more than 60%.
`CC(=O)N1CCN(c2nc3c(N4CCOC[C@@H]4C)nc(-c4cnc(N)nc4)nc3n2CC(C)C)CC1` [Example 129, 5-{8-(4-Acetylpiperazin-1-yl)-9-isobutyl-6-[(3S)-3-methylmorpholin-4-yl]-9H-purin-2-yl}pyrimidin-2-amine]: the IC50 at PI3Kα is 10 to 20 nM. Further, the GI50 in assay [1] is not above 5000 nM. The inhibition at 10 mg/kg in assay [3] was in the range of 70 to 90%.
`C[C@@H]1CN(c2nc3c(N4CCOCC4)nc(-c4cnc(N)nc4)nc3n2CC(F)(F)F)C[C@H](C)N1` [Example 14, 5-[8-(cis-3,5-Dimethylpiperazin-1-yl)-6-morpholin-4-yl-9-(2,2,2-trifluoroethyl)-9H-purin-2-yl]pyrimidin-2-amine]: the IC50 on PI3Kα was less than 10 nM. For the same compound, the GI50 in assay [1] is not above 5000 nM.
As for `CC(=O)N1CCN(c2nc3c(N4CCOCC4)nc(-c4cnc(N)nc4)nc3n2CC2CC2)CC1` [Example 10, 5-[8-(4-Acetylpiperazin-1-yl)-9-(cyclopropylmethyl)-6-morpholin-4-yl-9H-purin-2-yl]pyrimidin-2-amine], the half-inhibitory concentration (IC50) on PI3Kα is less than 10 nM. Further, in assay [1], the GI50 was not above 5000 nM.
Turning to `CC(=O)N1CCN(c2nc3c(N4CCOCC4)nc(-c4cnc(N)nc4)nc3n2CC(C)C)CC1` [Example 2, 5-[8-(4-Acetylpiperazin-1-yl)-9-isobutyl-6-morpholin-4-yl-9H-purin-2-yl]pyrimidin-2-amine], at PI3Kα, the IC50 was 10 to 20 nM. Also, the GI50 in assay [1] is not above 5000 nM.

Source of the values: patent US8309546B2, “Morpholinopurine derivatives” (Daiichi Sankyo Company, Limited, priority 2008, dated 2012).
